# Laboratory results published in ChEMBL document CHEMBL1201862, “PubChem BioAssay data set” (2004).
#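 Five compound concentrations were applied to cells in 96-well plates for 48 hours; endpoints were derived by simple linear interpolation of the resulting dose-response curve. GI50 marks 50% less growth.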 The source made the active and inactive calls. No stated cut-off is given here; in the data, active = GI50 up to about 1.1 µM and inactive = higher.
# Tests used:
# Experiment in all cases: growth of human tumour cells (NCI), 48 h
# BT-549 = test system: BT-549
# NCI-H226 = test system: NCI-H226
# 786-0 = test system: 786-0
# NCI-H522 = test system: NCI-H522
# HT-29 = test system: HT-29
# OVCAR-8 = test system: OVCAR-8
# SK-OV-3 = test system: SK-OV-3
# CAKI-1 = test system: CAKI-1
# K562 = test system: K562
# MDA-MB-435 = test system: MDA-MB-435
# OVCAR-4 = test system: OVCAR-4
# HOP-62 = test system: HOP-62
# KM12 = test system: KM12
# SNB-19 = test system: SNB-19
# SF-539 = test system: SF-539
# OVCAR-5 = test system: OVCAR-5
# MDA-N = test system: MDA-N
# SK-MEL-2 = test system: SK-MEL-2
# OVCAR-3 = test system: OVCAR-3
# MCF7 = test system: MCF7
SMILES,GI50 (BT-549),GI50 (NCI-H226),GI50 (786-0),GI50 (NCI-H522),GI50 (HT-29),GI50 (OVCAR-8),GI50 (SK-OV-3),GI50 (CAKI-1),GI50 (K562),GI50 (MDA-MB-435),GI50 (OVCAR-4),GI50 (HOP-62),GI50 (KM12),GI50 (SNB-19),GI50 (SF-539),GI50 (OVCAR-5),GI50 (MDA-N),GI50 (SK-MEL-2),GI50 (OVCAR-3),GI50 (MCF7)
Nc1cc2c(nnn2C2OC(COCc3ccccc3)C(OCc3ccccc3)C2OCc2ccccc2)c(=O)[nH]1 (stereo not given),20 µM (inactive),15.5 µM (inactive),19.6 µM (inactive),18.9 µM (inactive),14.2 µM (inactive),18.9 µM (inactive),33.3 µM (inactive),> 100 µM (inactive),7.41 µM (inactive),10.9 µM (inactive),12.5 µM (inactive),37.8 µM (inactive),13 µM (inactive),22.8 µM (inactive),21.6 µM (inactive),27.6 µM (inactive),10.2 µM (inactive),10.5 µM (inactive),18.7 µM (inactive),5.48 µM (inactive)
CN(CCCNC(=O)c1cc(-c2ccccc2)nc2ccccc12)CCCNC(=O)c1cc(-c2ccccc2)nc2ccccc12,12.9 µM (inactive),3.81 µM (inactive),1.7 µM (inactive),1.77 µM (inactive),2 µM (inactive),2.32 µM (inactive),13 µM (inactive),9.16 µM (inactive),1.99 µM (inactive),1.76 µM (inactive),3.54 µM (inactive),1.82 µM (inactive),2.02 µM (inactive),5.97 µM (inactive),2.2 µM (inactive),2.28 µM (inactive),1.8 µM (inactive),1.96 µM (inactive),3.27 µM (inactive),1.48 µM (inactive)
Nc1ccc(S(=O)(=O)Nc2ccc(Nc3c4ccccc4nc4ccccc34)cc2)cc1,0.0906 µM (active),0.0101 µM (active),0.0413 µM (active),0.0695 µM (active),0.198 µM (active),0.041 µM (active),0.0174 µM (active),< 0.0126 µM (active),0.0716 µM (active),9.33 µM (inactive),3.66 µM (inactive),< 0.0119 µM (active),0.169 µM (active),0.0182 µM (active),0.0166 µM (active),0.164 µM (active),10.2 µM (inactive),0.769 µM (active),0.245 µM (active),< 0.01 µM (active)
COc1c(/C=C/C(C)(C)O)cc(C2CC(=O)c3c(O)cc(O)cc3O2)cc1CC=C(C)C (stereo not given),8.49 µM (inactive),9.71 µM (inactive),9.57 µM (inactive),9.27 µM (inactive),8.91 µM (inactive),10.8 µM (inactive),7.83 µM (inactive),16 µM (inactive),10.7 µM (inactive),8.02 µM (inactive),10.4 µM (inactive),,10.4 µM (inactive),10.6 µM (inactive),9.4 µM (inactive),9.14 µM (inactive),9.53 µM (inactive),8.61 µM (inactive),,8.51 µM (inactive)
CC1=NN(c2cccc(Cl)c2)C2(C1=Cc1cccs1)C(Cl)C(=O)N2c1nc2ccccc2s1 (stereo not given),25.2 µM (inactive),24.3 µM (inactive),13.8 µM (inactive),18.5 µM (inactive),21.6 µM (inactive),20.4 µM (inactive),,23.5 µM (inactive),25.7 µM (inactive),30.4 µM (inactive),28.9 µM (inactive),27.6 µM (inactive),28.7 µM (inactive),,15.2 µM (inactive),18.2 µM (inactive),22.1 µM (inactive),17.9 µM (inactive),17.7 µM (inactive),23.2 µM (inactive)
Nc1nc(S)c2c(N)n[nH]c2c1C(=O)Nc1ccc(Cl)cc1,> 100 µM (inactive),> 100 µM (inactive),45.9 µM (inactive),96.4 µM (inactive),> 100 µM (inactive),32.1 µM (inactive),> 100 µM (inactive),60.3 µM (inactive),91.6 µM (inactive),84.5 µM (inactive),64.4 µM (inactive),,21.4 µM (inactive),> 100 µM (inactive),> 100 µM (inactive),> 100 µM (inactive),89.7 µM (inactive),> 100 µM (inactive),> 100 µM (inactive),> 100 µM (inactive)
